For 21 compounds, IC50 results are on record in US20220144848A1, “SUBSTITUTED OXOPYRIDINE DERIVATIVES” (Bayer Aktiengesellschaft, priority 2018, published 2022).

For test [1], the target named is T1, human factor XIa (Homo sapiens, UniProt P03951).
T1 construct: purchased Kordia
Nature of the test: Measurement of FXIa inhibition (fluorogenic peptide substrate Boc-Glu(OBzl)-Ala-Arg-AMC). Particulars: factor XIa from Kordia, 15 min preincubation, 30 min at 22° C., fluorescence; some as mean values from multiple determinations. The format is biochemical. The procedure: The factor XIa inhibition of the substances according to the invention is determined using a biochemical test system which utilizes the reaction of a peptidic factor XIa substrate to determine the enzymatic activity of human factor XIa. Here, factor XIa cleaves from the peptidic factor XIa substrate the C-terminal aminomethylcoumarin (AMC), the fluorescence of which is measured. The determinations are carried out in microtitre plates.
Test substances are dissolved in dimethyl sulfoxide and serially diluted in dimethyl sulfoxide (3000 μM to 0.0078 μM; resulting final concentrations in the test: 50 μM to 0.00013 μM). In each case 1 μl of the diluted substance solutions is placed into the wells of white microtitre plates from Greiner (384 wells). 20 μl of assay buffer (50 mM of Tris/HCl pH 7.4; 100 mM of sodium chloride; 5 mM of calcium chloride; 0.1% of bovine serum albumin) and 20 μl of factor XIa from Kordia (0.45 nM in assay buffer) are then added successively. After 15 min of incubation, the enzyme reaction is started by addition of 20 μl of the factor XIa substrate Boc-Glu(OBzl)-Ala-Arg-AMC dissolved in assay buffer (10 μM in assay buffer) from Bachem, the mixture is incubated at room temperature (22° C.) for 30 min and fluorescence is then measured (excitation: 360 nm, emission: 460 nm). The measured emissions of the test batches with test substance are compared to those of control batches without test substance (only dimethyl sulfoxide instead of test substance in dimethyl sulfoxide), and IC50 values are calculated from the concentration/activity relationships.

Test [2] deals with T2, human plasma kallikrein (Homo sapiens, UniProt P03952).
T2 construct: purchased Kordia
Nature of the test: Determination of the plasma kallikrein activity (fluorogenic peptide substrate H-Pro-Phe-Arg-AMC). It counts as biochemical. Particulars: plasma kallikrein from Kordia, 15 min preincubation, 30 min at 22° C., fluorescence; some as mean values from multiple determinations. How it is done:
To determine the plasma kallikrein inhibition of the substances according to the invention, a biochemical test system is used which utilizes the reaction of a peptidic plasma kallikrein substrate to determine the enzymatic activity of human plasma kallikrein. Here, plasma kallikrein cleaves from the peptidic plasma kallikrein substrate the C-terminal aminomethylcoumarin (AMC), the fluorescence of which is measured. The determinations are carried out in microtitre plates.
Test substances are dissolved in dimethyl sulfoxide and serially diluted in dimethyl sulfoxide (3000 μM to 0.0078 μM; resulting final concentrations in the test: 50 μM to 0.00013 μM). In each case 1 μl of the diluted substance solutions is placed into the wells of white microtitre plates from Greiner (384 wells). 20 μl of assay buffer (50 mM Tris/HCl pH 7.4; 100 mM sodium chloride solution; 5 mM of calcium chloride solution; 0.1% of bovine serum albumin) and 20 μl of plasma kallikrein from Kordia (0.6 nM in assay buffer) are then added successively. After 15 min of incubation, the enzyme reaction is started by addition of 20 μl of the substrate H-Pro-Phe-Arg-AMC dissolved in assay buffer (10 μM in assay buffer) from Bachem, the mixture is incubated at room temperature (22° C.) for 30 min and fluorescence is then measured (excitation: 360 nm, emission: 460 nm). The measured emissions of the test batches with test substance are compared to those of control batches without test substance (only dimethyl sulfoxide instead of test substance in dimethyl sulfoxide), and IC50 values are calculated from the concentration/activity relationships. Activity data from this test are listed in Table B below (some as mean values from multiple independent individual determinations): […]

SMILES strings stand for the structures. pIC50: −log10 of the molar value.

T1 sequence (P03951 388-625 limits assumed): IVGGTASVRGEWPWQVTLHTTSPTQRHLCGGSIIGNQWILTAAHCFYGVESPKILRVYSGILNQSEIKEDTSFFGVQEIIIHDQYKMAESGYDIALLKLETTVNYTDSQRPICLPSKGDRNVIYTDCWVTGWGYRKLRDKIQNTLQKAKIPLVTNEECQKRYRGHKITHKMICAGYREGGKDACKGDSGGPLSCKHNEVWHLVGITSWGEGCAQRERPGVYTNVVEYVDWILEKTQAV
T1 sequence (P03951 19-387 partner limits assumed): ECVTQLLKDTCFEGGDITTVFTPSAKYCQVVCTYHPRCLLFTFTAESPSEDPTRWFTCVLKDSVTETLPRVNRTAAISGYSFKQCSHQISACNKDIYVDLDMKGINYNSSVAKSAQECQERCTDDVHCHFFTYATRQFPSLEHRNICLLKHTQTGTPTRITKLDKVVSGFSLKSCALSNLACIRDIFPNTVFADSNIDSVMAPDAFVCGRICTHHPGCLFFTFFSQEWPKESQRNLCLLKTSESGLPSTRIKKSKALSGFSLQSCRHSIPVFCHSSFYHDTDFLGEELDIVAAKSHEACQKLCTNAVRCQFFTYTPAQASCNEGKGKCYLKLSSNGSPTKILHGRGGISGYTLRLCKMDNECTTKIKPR
T2 sequence (P03952 391-638 limits assumed): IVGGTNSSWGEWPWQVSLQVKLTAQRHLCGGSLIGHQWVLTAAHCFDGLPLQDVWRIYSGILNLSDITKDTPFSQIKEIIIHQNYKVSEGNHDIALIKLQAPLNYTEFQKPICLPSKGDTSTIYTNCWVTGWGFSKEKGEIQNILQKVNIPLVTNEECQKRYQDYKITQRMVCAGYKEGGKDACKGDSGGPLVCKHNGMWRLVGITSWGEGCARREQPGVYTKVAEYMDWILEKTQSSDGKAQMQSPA
T2 sequence (P03952 20-390 partner limits assumed): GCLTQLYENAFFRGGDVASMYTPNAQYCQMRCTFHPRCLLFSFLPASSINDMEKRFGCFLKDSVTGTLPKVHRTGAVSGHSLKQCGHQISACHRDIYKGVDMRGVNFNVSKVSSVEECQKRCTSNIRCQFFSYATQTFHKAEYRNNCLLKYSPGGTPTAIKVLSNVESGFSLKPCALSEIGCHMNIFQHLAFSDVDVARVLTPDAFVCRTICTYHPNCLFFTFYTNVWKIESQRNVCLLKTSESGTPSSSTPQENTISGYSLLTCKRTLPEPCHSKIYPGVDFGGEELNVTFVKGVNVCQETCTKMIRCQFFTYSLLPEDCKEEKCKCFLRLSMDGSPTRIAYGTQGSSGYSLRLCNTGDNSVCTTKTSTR

As usually defined, the pIC50 is the negative decadic logarithm of the IC50, by convention in mol/L. Low readings indicate a high IC50, high ones a low IC50. For the compound `C[C@@H]1Cc2ccc(Cl)cc2-c2cc(=O)n([C@@H](C[C@@H]3COCCO3)C(=O)Nc3ccc(C(N)=O)cc3)cc2CO1` (single isomer, unassigned) [Example 10], the values for the pIC50 in test [1] and in test [2] were 8.92 and 7.06, respectively.

On to `CC1Cc2ccc(Cl)cc2-c2cc(=O)n(C(C[C@@H]3CCCCO3)C(=O)Nc3ccc(C(N)=O)nc3)cc2CO1` (mixture of isomers) [Example 3, 5-{2-(11-Chloro-7-methyl-2-oxo-7,8-dihydro-2H-[3]benzoxocino[5,6-c]pyridin-3(5H)-yl)-3-[(2S)-tetrahydro-2H-pyran-2-yl]propanamido}pyridine-2-carboxamide], for which the results for the pIC50 in test [1] and in test [2] were 8.22 and 6.29, respectively.

For the compound `CO[C@H](C[C@@H](C(=O)Nc1ccc(C(N)=O)cc1)n1cc2c(cc1=O)-c1cc(Cl)ccc1C[C@@H](C)OC2)C1CC1` (single isomer, unassigned) [Example 14], the pIC50 in test [1] is 8.41; in test [2], 6.66.

As for `CO[C@@H](C)C[C@@H](C(=O)Nc1ccc(C(N)=O)cc1)n1cc2c(cc1=O)-c1cc(Cl)ccc1C[C@@H](C(F)(F)F)OC2` (single isomer, unassigned) [Example 67], the pIC50 in test [1] was 8.46; in test [2] it was 6.66.

As for `CC(C)[C@@H]1Cc2ccc(Cl)cc2-c2cc(=O)n([C@@H](C[C@@H]3COCCO3)C(=O)Nc3ccc4nn(C)nc4c3)cc2CO1` (single isomer, unassigned) [Example 45], the negative logarithm of the IC50 (pIC50) in test [1] was 7.77; in test [2], 6.18.

As for `COCCC(C(=O)Nc1ccn2ncnc2c1)n1cc2c(cc1=O)-c1cc(Cl)ccc1CC(C(F)(F)F)OC2` (mixture of isomers) [Example 64, 2-[11-Chloro-2-oxo-7-(trifluoromethyl)-7,8-dihydro-2H-[3]benzoxocino[5,6-c]pyridin-3(5H)-yl]-4-methoxy-N-([1,2,4]triazolo[1,5-a]pyridin-7-yl)butanamide], the pIC50 is 7.38 in test [1] and 6.24 in test [2].

Take `C[C@@H]1Cc2ccc(Cl)cc2-c2cc(=O)n(C(CCOC(F)F)C(=O)Nc3ccc(C(N)=O)cc3)cc2CO1` (mixture of isomers) [Example 16, 4-{2-[(7R)-11-Chlor-7-methyl-2-oxo-7,8-dihydro-2H-[3]benzoxocino[5,6-c]pyridin-3(5H)-yl]-4-(difluoromethoxy)butanamido}benzamide]: the negative logarithm of the IC50 (pIC50) in test [1] was 8.46; in test [2] it was 6.96.

Turning to `C[C@@H]1Cc2ccc(Cl)cc2-c2cc(=O)n(C(C[C@H](C)OC(F)F)C(=O)Nc3ccc(C(N)=O)cc3)cc2CO1` (mixture of isomers) [Example 18, 4-{[(4S)-2-[(7R)-11-Chloro-7-methyl-2-oxo-7,8-dihydro-2H-[3]benzoxocino[5,6-c]pyridin-3(5H)-yl]-4-(difluoromethoxy)pentanoyl]amino}benzamide], the figures for the pIC50 in test [1] and in test [2] were 8.43 and 6.85, respectively.

For `CC1Cc2ccc(Cl)cc2-c2cc(=O)n(C(C[C@@H]3CCCCO3)C(=O)Nc3ccc(C(N)=O)cc3)cc2CO1` (mixture of isomers) [Example 5, 4-({2-(11-Chloro-7-methyl-2-oxo-7,8-dihydro-2H-[3]benzoxocino[5,6-c]pyridin-3(5H)-yl)-3-[(2S)-tetrahydro-2H-pyran-2-yl]propanoyl}amino)benzamide], the pIC50 was 8.37 in test [1] and 6.40 in test [2].

As to `C[C@@H]1Cc2ccc(Cl)cc2-c2cc(=O)n([C@@H](C)C(=O)Nc3ccc(C(N)=O)cc3)cc2CO1` (single isomer, unassigned) [Example 76], the results for the pIC50 in test [1] and in test [2] were 8.01 and 6.72, respectively.

Consider `C[C@@H]1Cc2ccc(Cl)cc2-c2cc(=O)n([C@@H](CCOC(C)(C)C)C(=O)Nc3ccc(C(N)=O)cc3)cc2CO1` (single isomer, unassigned) [Example 24], for which the pIC50 in test [1] is 8.27; in test [2] it was 6.96.

Take `COCCC(C(=O)Nc1ccc(C(N)=O)c(F)c1)n1cc2c(cc1=O)-c1cc(Cl)ccc1CC(C(F)(F)F)OC2` (mixture of isomers) [Example 60, 4-({2-[11-Chloro-2-oxo-7-(trifluoromethyl)-7,8-dihydro-2H-[3]benzoxocino[5,6-c]pyridin-3(5H)-yl]-4-methoxybutanoyl}amino)-2-fluorobenzamide]: the pIC50 in test [1] was 7.59; in test [2], 6.11.

With `CC[C@@H](C(=O)Nc1ccc(C(N)=O)cc1)n1cc2c(cc1=O)-c1c(ccc(Cl)c1F)C[C@@H](C)OC2` (single isomer, unassigned) [Example 28], the pIC50 in test [1] is 7.92; in test [2], 6.72.

`NC(=O)c1ccc(NC(=O)[C@H](C[C@@H]2COCCO2)n2cc3c(cc2=O)-c2cc(Cl)ccc2C[C@@H](CO)OC3)cc1` (single isomer, unassigned) [Example 37]: the pIC50 is 8.22 in test [1] and 6.49 in test [2].

In the case of `NC(=O)c1ccc(NC(=O)C(C[C@@H]2CCCCO2)n2cc3c(cc2=O)-c2cc(Cl)ccc2CC(C(F)(F)F)OC3)cc1` (mixture of isomers) [Example 54, 4-({2-[11-Chloro-2-oxo-7-(trifluoromethyl)-7,8-dihydro-2H-[3]benzoxocino[5,6-c]pyridin-3(5H)-yl]-3-[(2S)-tetrahydro-2H-pyran-2-yl]propanoyl}amino)benzamide], the negative logarithm of the IC50 (pIC50) in test [1] was 8.55; in test [2], 6.40.

As for `C[C@@H]1Cc2ccc(Cl)cc2-c2cc(=O)n([C@@H](C[C@@H]3CCCCO3)C(=O)Nc3ccc(C(N)=O)cc3)cc2[C@H](C)O1` (single isomer, unassigned) [Example 73], the pIC50 in test [1] is 9.10; in test [2] it was 7.57.

`NC(=O)c1ccc(NC(=O)[C@H](C[C@@H]2CCCCO2)n2cc3c(cc2=O)-c2cc(Cl)ccc2C[C@@H](C(F)F)OC3)cc1F` (single isomer, unassigned) [Example 49]: the values for the pIC50 in test [1] and in test [2] were 8.33 and 6.43, respectively.

Regarding `NC(=O)c1ccc(NC(=O)[C@H](C[C@@H]2CCCCO2)n2cc3c(cc2=O)-c2cc(Cl)ccc2C[C@@H](C(F)(F)F)OC3)cc1F` (single isomer, unassigned) [Example 51], the pIC50 in test [1] was 8.38; in test [2], 6.44.

For `CC[C@@H](C(=O)Nc1ccc(C(N)=O)cc1)n1cc2c(cc1=O)-c1c(ccc(Cl)c1Cl)C[C@@H](C(F)(F)F)OC2` (single isomer, unassigned) [Example 70], the values for the pIC50 in test [1] and in test [2] were 7.19 and 6.24, respectively.

On to `CO[C@@H](C)CC(C(=O)Nc1ccc(C(N)=O)cc1)n1cc2c(cc1=O)-c1cc(Cl)ccc1C[C@@H](C(F)(F)F)OC2` (mixture of isomers) [Example 66, 4-({(4S)-2-[(7S)-11-Chloro-2-oxo-7-(trifluoromethyl)-7,8-dihydro-2H-[3]benzoxocino[5,6-c]pyridin-3(5H)-yl]-4-methoxypentanoyl}amino)benzamide], for which the pIC50 is 8.29 in test [1] and 6.49 in test [2].

Consider `CC1Cc2ccc(Cl)cc2-c2cc(=O)n(C(CCOC(C)(C)C)C(=O)Nc3ccc(C(N)=O)cc3)cc2CO1` (mixture of isomers) [Example 23, 4-{[4-tert-Butoxy-2-(11-chloro-7-methyl-2-oxo-7,8-dihydro-2H-[3]benzoxocino[5,6-c]pyridin-3(5H)-yl)butanoyl]amino}benzamide], for which the pIC50 in test [1] was 7.66; in test [2], 6.39.
